Data taken from patent publication US12365655B2, “Compounds” (CTXT PTY LTD, priority 2018, dated 2025).
pIC50: −log10 of the molar value.

What was measured:
[1] = target: TIP60-KAT5 (Homo sapiens, UniProt Q92993); assay: Acetyltransferase biochemical assay (AlphaScreen), KAT5
[2] = system: acetylation of the histone H3K23 marker in U2OS cells; assay: Histone H3 Lysine 23 Acetylation Biomarker Assay; type: cell-based; details: Homo sapiens, 24 hours incubation, read-out: IC50, inhibition of histone H3K23 acetylation
Experimental: Compounds were tested for their ability to inhibit acetylation of the histone H3K23 marker in the following assay:
The cell line U2OS was seeded at a density of 9,000 cells per well in 96 well optical quality tissue culture plates in RPMI medium and 10% foetal bovine serum, and allowed to adhere for 24 hours under standard culture conditions (37 degree Celsius, 5% CO2). At the end of this period the medium was aspirated. […] After incubation for 24 hours, the cells were fixed with 3.7% formaldehyde in PBS for 20 minutes at room temperature, washed (5×5 minutes) with phosphate buffer saline containing 0.1% Tween 20 and blocked with Odyssey blocking buffer (LI-COR, Lincoln, Nebr.) containing 0.1% TritonX100. Anti-H3K23ac specific antibody (Abcam ab177275) in Odyssey blocking buffer containing 0.1% Tween 20 was added and incubated for 16 hours at 4 degree Celsius. After washing (as above), a secondary antibody labelled with Alexa647 dye (LifeTechnologies) and Hoechst 33342 (1 μg/mL, SigmaAldrich) were added for 1 hour incubation. Plates were washed as previously and read on a PerkinElmer Phenix high content imaging platform. Using a Columbus image analysis pipeline, individual nuclei were located by Hoechst 33342 stain and the acetylation level was calculated from the Alexa647-related intensity in the same area.

[3] = target: MOZ-KAT6A (Homo sapiens, UniProt Q92794, A567V); assay: Acetyltransferase biochemical assay (AlphaScreen), KAT6A
MOZ-KAT6A, sequence (Q92794 with tags, fused parts or gaps A567V): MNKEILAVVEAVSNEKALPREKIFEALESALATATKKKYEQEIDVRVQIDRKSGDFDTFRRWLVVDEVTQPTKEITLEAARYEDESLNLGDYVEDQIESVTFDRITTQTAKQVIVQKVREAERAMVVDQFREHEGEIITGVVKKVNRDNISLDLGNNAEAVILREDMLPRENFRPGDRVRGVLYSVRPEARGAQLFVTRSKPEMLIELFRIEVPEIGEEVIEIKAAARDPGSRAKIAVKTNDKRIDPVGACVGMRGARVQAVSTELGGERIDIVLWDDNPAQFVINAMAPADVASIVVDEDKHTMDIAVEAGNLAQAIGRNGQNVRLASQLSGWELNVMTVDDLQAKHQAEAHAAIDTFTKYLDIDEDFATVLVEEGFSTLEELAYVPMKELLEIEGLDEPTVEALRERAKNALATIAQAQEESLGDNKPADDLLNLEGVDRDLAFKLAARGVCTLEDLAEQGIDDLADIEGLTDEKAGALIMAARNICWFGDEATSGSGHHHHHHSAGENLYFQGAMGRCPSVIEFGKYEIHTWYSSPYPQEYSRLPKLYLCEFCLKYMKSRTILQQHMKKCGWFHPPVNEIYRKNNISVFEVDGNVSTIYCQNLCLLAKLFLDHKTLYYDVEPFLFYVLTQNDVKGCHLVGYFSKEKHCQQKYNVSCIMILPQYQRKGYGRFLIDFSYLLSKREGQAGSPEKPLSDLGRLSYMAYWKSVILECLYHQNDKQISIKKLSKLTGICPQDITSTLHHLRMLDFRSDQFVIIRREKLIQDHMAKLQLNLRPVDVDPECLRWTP

[4] = system: acetylation of the histone H3 Lysine 14 marker in U2OS cells; assay: Histone H3 Lysine 14 Acetylation Biomarker Assay; type: cell-based; details: Homo sapiens, serum free medium, 24 hours incubation, read-out: IC50, inhibition of histone H3 Lysine 14 acetylation
Experimental: Compounds were tested for their ability to inhibit acetylation of the histone H3 Lysine 14 marker in the following assay:
The cell line U2OS was seeded at a density of 3,000 cells per well in 384-well optical quality tissue culture plates in RPMI medium supplemented with 10% foetal bovine serum and 10 mM Hepes. The cells were allowed to adhere for 24 hours under standard culture conditions (37 degree Celsius, 5% CO2). At the end of this period the cells were washed with serum free medium. […] After incubation for 24 hours, the cells were fixed with 4% formaldehyde in PBS for 15 minutes at room temperature, washed with phosphate buffer saline and blocked with blocking buffer containing 0.2% TritonX100 and 2% BSA. Anti-H3K14ac specific antibody (Cell Signalling Technologies) in blocking buffer was added and incubated overnight at 4 degree Celsius. After washing, a secondary antibody labelled with AlexaFluor 488 dye (ThermoFisher) and Hoechst 33342 (1 μg/mL, Life Technologies) were added for 2 hours incubation at room temperature. Plates were washed and read on a PerkinElmer Opera HCS high content imaging platform. Using a Columbus image analysis pipeline, individual nuclei were located by Hoechst 33342 stain and the acetylation level was calculated from the AlexaFluor 488-related intensity in the same area.

[5] = target: HBO-KAT7 (Homo sapiens, UniProt O95251); assay: Acetyltransferase biochemical assay (AlphaScreen), KAT7
HBO-KAT7, sequence (O95251 with tags, fused parts or gaps): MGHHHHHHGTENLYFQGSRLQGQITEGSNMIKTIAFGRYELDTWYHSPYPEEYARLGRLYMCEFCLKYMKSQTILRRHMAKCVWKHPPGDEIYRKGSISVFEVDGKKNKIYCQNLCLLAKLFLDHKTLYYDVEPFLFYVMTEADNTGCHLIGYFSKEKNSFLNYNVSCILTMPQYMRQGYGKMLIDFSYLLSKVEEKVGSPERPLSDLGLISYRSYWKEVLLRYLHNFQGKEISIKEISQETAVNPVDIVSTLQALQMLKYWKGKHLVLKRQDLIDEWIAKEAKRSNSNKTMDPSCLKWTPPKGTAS

[6] = target: T1, MOF-KAT8 (Homo sapiens, UniProt Q9H7Z6); assay: biochemical
T1 sequence (Q9H7Z6 with tags, fused parts or gaps): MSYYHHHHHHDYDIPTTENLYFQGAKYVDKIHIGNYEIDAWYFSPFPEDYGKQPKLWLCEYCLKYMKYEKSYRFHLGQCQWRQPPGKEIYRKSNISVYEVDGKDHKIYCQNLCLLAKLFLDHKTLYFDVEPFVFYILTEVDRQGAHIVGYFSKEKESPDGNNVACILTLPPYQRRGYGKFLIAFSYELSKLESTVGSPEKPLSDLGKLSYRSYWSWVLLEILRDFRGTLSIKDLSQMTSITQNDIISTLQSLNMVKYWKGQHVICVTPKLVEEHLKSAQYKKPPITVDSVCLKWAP

[7] = target: T2, QKF-KAT6B (Homo sapiens, UniProt Q8WYB5); assay: Acetyltransferase biochemical assay (AlphaScreen), KAT6B; details: 8 nM KAT6B, 1 μM AcCoA, 100 nM histone H3.1
T2 construct: purchased SignalChem K315-381BG
T2 sequence (Q8WYB5 whole entry): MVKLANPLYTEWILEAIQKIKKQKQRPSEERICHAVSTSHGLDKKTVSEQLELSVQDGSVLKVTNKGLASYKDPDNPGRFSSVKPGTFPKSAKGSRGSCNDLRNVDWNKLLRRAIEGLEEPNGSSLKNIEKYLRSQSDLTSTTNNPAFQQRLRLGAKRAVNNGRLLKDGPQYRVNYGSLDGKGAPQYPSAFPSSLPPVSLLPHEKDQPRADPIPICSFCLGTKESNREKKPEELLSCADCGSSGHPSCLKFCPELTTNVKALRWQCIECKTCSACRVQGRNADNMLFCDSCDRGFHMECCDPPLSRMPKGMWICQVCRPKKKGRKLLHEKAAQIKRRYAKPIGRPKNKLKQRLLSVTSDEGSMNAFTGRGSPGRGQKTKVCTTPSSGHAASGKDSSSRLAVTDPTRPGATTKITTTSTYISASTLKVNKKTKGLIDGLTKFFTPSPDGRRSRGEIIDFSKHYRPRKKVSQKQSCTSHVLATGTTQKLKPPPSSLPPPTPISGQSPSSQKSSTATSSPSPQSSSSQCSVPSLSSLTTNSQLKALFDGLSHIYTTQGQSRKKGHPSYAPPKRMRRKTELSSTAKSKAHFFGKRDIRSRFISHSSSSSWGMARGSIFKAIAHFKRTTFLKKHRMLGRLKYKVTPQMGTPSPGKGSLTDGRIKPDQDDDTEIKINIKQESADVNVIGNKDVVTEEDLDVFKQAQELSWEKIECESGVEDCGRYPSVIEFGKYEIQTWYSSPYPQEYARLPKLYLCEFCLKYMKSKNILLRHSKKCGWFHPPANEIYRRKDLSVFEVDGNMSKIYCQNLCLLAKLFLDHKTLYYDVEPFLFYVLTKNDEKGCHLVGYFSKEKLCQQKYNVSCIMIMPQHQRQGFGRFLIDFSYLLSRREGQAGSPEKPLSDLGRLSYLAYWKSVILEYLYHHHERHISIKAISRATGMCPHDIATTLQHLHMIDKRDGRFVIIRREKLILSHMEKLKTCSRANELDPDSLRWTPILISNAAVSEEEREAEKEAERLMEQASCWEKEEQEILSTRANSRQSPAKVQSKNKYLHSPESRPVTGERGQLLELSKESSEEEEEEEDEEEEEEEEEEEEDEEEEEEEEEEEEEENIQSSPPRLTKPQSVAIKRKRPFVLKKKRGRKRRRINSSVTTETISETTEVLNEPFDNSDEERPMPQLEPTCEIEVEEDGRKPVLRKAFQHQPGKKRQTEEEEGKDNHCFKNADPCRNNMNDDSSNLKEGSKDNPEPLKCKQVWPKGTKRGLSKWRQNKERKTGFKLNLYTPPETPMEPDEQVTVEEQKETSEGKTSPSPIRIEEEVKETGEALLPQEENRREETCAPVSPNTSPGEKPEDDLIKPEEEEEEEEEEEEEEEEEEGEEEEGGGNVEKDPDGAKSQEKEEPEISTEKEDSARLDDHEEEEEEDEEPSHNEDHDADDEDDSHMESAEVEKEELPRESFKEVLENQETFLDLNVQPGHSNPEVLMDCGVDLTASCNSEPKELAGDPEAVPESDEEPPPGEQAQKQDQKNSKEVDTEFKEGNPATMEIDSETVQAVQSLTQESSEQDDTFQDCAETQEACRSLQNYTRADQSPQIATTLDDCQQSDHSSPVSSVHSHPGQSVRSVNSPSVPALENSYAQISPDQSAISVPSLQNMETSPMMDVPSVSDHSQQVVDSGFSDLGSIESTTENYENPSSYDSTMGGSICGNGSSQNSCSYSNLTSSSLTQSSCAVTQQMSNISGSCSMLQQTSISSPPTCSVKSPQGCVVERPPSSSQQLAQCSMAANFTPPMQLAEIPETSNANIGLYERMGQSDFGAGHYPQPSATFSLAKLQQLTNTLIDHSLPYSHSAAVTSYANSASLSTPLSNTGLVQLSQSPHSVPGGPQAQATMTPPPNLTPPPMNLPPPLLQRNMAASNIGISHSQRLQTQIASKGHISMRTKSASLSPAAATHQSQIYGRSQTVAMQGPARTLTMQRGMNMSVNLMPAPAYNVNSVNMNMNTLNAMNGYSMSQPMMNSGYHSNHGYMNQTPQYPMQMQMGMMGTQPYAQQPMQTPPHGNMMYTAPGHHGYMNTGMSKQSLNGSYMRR
Source text: KAT6B was obtained from SignalChem, catalog ID: K315-381BG

[8] = system: histone H2A.Z Lysine 7 acetylation marker in U2OS cells; assay: H2A.Z Lysine 7 Acetylation Biomarker Assay; type: cell-based; details: Homo sapiens, serum free medium, 24 hours incubation, read-out: IC50, inhibition of histone H2A.Z Lysine 7 acetylation
Experimental: Compounds were tested for their ability to inhibit the histone H2A.Z Lysine 7 acetylation marker in the following assay:
The cell line U2OS was seeded at a density of 3,000 cells per well in 384-well optical quality tissue culture plates in RPMI medium supplemented with 10% foetal bovine serum and 10 mM Hepes. The cells were allowed to adhere for 24 hours under standard culture conditions (37 degree Celsius, 5% CO2). At the end of this period the cells were washed with serum free medium. […] 2018, at 30 μM concentration. After incubation for 24 hours, the cells were fixed with 4% formaldehyde in PBS for 15 minutes at room temperature, washed with phosphate buffer saline and blocked with blocking buffer containing 0.2% TritonX100 and 2% BSA. Anti-H2A.ZK7ac specific antibody (Abcam) in blocking buffer was added and incubated overnight at 4 degree Celsius. After washing, a secondary antibody labelled with AlexaFluor 488 dye (ThermoFisher) and Hoechst 33342 (1 μg/mL, Life Technologies) were added for 2 hours incubation at room temperature. Plates were washed and read on a PerkinElmer Opera HCS high content imaging platform. Using a Columbus image analysis pipeline, individual nuclei were located by Hoechst 33342 stain and the acetylation level was calculated from the AlexaFluor 488-related intensity in the same area.

TIP60-KAT5, sequence (Q92993 with tags, fused parts or gaps isoform Q92993-2): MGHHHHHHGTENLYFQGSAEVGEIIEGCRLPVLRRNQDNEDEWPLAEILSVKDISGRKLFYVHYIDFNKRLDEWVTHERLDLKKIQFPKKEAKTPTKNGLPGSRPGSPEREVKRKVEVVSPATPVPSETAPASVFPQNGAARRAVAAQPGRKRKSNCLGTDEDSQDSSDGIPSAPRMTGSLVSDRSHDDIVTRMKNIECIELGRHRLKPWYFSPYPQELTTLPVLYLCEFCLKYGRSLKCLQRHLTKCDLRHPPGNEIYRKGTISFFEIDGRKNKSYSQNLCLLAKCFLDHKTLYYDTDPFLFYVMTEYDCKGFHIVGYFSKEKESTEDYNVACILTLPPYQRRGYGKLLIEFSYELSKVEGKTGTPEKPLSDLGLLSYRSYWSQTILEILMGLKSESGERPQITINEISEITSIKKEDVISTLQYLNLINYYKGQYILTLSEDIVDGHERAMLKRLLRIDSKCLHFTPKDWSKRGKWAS

SMILES | pIC50 [1] | pIC50 [2] | pIC50 [3] | pIC50 [4] | pIC50 [5] | pIC50 [6] | pIC50 [7] | pIC50 [8]
COc1cccc2onc(NS(=O)(=O)c3cccc4cc(C)cnc34)c12 [Example 73, N-(4-methoxybenzo[d]isoxazol-3-yl)-3-methyl quinoline-8-sulfonamide] | 5.67 | < 5.00 | 5.34 | 4.90 | 6.29 | 5.46 | 5.39 | 4.44
CCc1ccc(OC)c(S(=O)(=O)Nc2noc3c(-c4ccccc4)cccc23)c1 [Example 178, 5-Ethyl-2-methoxy-N-(7-phenylbenzo[d]isoxazol-3-yl)benzenesulfonamide] | 5.12 | < 5.00 | 5.84 | 5.51 | 6.32 | 6.11 | 5.61 | 5.25
COCc1cc2onc(NS(=O)(=O)c3ccc(OC)cc3OC)c2cc1C [Example 166, 2,4-dimethoxy-N-(6-(methoxymethyl)-5-methylbenzo[d]isoxazol-3-yl)benzenesulfonamide] | 5.51 | 6.40 | 6.91 | 5.43 | 6.48 | 5.53 | 6.64 | 4.48
COc1cc(-c2ccccc2)cc(OC)c1S(=O)(=O)Nc1noc2cccc(OC)c12 [Example 95, 3,5-Dimethoxy-N-(4-methoxybenzo[d]isoxazol-3-yl)-[1,1-biphenyl]-4-sulfonamide] | 4.85 | < 5.00 | 6.37 | 5.04 | 6.12 | 5.19 | 5.79 | < 4.40
COCc1cc(OC)c2c(NS(=O)(=O)c3c(OC)cccc3OC)noc2c1 [Example 173, 2,6-Dimethoxy-N-(4-methoxy-6-(methoxymethyl)benzo[d]isoxazol-3-yl)benzenesulfonamide] | 5.39 | 7.70 | 7.82 | 6.27 | 6.77 | 5.45 | 7.40 | 4.58
COc1ccccc1-c1cc(OC)c2c(NS(=O)(=O)c3c(OC)cccc3OC)noc2c1 [Example 176, 2,6-Dimethoxy-N-(4-methoxy-6-(2-methoxyphenyl)benzo[d]isoxazol-3-yl)benzenesulfonamide] | 5.25 | 6.16 | 7.52 | 5.97 | 6.86 | – | 6.92 | 5.12
CCOCc1cc(OC)c2c(NS(=O)(=O)c3c(OC)cccc3OC)noc2c1 [Example 172] | 5.04 | 7.85 | 7.43 | 5.84 | 6.37 | – | 7.38 | 4.54
COCc1cc(OC)c2c(NS(=O)(=O)c3c(OC)cc(-c4ccccc4)cc3OC)noc2c1 [Example 91, 3,5-Dimethoxy-N-(4-methoxy-6-(methoxymethyl)benzo [d]isoxazol-3-yl)-[1,1-biphenyl]-4-sulfonamide] | 5.66 | 6.74 | 8.05 | 6.06 | 7.10 | – | 7.43 | 5.10
COCc1cc(OC)c2c(NS(=O)(=O)c3ccc(OC)c4cccnc34)noc2c1 [Example 162, 5-methoxy-N-(4-methoxy-6-(methoxymethyl)benzo[d]isoxazol-3-yl)quinoline-8-sulfonamide] | 4.86 | 6.84 | 6.83 | 5.82 | 6.01 | 4.97 | 6.74 | 4.53
